Experiment [1] deals with T1, TyrBm (tyrosinase from Bacillus megaterium) (Priestia megaterium, UniProt B2ZB02).
T1 sequence (B2ZB02 1-297): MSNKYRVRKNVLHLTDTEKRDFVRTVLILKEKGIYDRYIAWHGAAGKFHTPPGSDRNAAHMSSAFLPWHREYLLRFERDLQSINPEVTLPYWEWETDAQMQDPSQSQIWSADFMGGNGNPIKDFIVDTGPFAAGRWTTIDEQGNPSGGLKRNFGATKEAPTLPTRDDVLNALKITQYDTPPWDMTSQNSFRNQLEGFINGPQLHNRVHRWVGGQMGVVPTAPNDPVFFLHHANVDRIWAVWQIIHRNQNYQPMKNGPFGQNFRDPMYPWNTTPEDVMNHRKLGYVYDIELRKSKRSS
How it is done:
The formation of HBP was monitored by measuring the absorbance at 475 nm[26].
Batel Deria,§, Margarita Kanteeva,§, Mor Goldfedera, Daniel Lecinab, Victor Guallarb,c,
Noam Adird, and Ayelet Fishmana,†
presence of reducing agents measured at 475 nm.
increasing concentrations of L-dopa (0-3 mM).
as the substrate in the presence of increasing concentrations of H2O2 (0-90 mM).
reactions contained 6 µg ml-1 of purified TyrBm, 50 mM PBS buffer pH 7.4 and 0.01 mM
(§1) (1 picture or pasted object on this page, not shown here)

In experiment [2] the target is T1, TyrBm (tyrosinase from Bacillus megaterium). To be noted: 1 mM L-dopa. How it is done: Measurements were carried out using a Hansatech Oxygraph+ electrode (Norfolk, UK) in a reaction volume of 1000 μL.
(a) Spectrophotometric recordings measured at 475 nm. All measurements were performed in heptaplicates. (b) Oxygen consumption recordings. The inset presents the oxygen […]
measurements were performed in triplicates. The reactions contained 4 µg ml-1 of purified […]
The slopes representing the activity rate are given for each graph.
as §1

The target of another experiment is mushroom tyrosinase. To be noted: cited from earlier work.
Experiment [3] deals with Agaricus bisporus tyrosinase. The conditions noted are these: HQ as substrate; cited from earlier work.
Experiment [4] has as its target T1, TyrBm (tyrosinase from Bacillus megaterium). Kind of experiment: biochemical.
Description: Tyrosinase inhibitory activity was determined spectrophotometrically in 96-well plates with a final volume of 200 μl. First, 50 mM PBS buffer pH 7.4 and 0.01 mM CuSO4 were mixed with 6 μg ml^−1 of purified enzyme. Then, the mixture was incubated at 40 °C for 2 minutes. […] Specific activity was calculated as the ratio of the conversion rate and the total protein content as determined by the Bradford analysis method (Bio-Rad, Israel). All measurements were performed in seven replicates.
Experiment [5] has the same target. Kind of experiment: Kinetic analysis of tyrosinase (Lineweaver-Burk plots). The class given is biochemical. Also on record: made in house; host or cells: Escherichia coli BL21. On the procedure:
All measurements were performed in seven replicates.
The inhibitor concentrations were mentioned above. The inhibition kinetics module of Sigma Plot 13.0 software was used (Systat Software, Inc., Richmond, CA, USA). All measurements were performed in 5-replicates.

Experiment [6] has the same target. Kind of experiment: biochemical. The class given is binding. Set-up: made in house; host or cells: Escherichia coli BL21. On the procedure:
TyrBm was labeled fluorescently with a RED dye (NT-647-NHS) according to the manufacturer’s protocol (NanoTemper Technologies, Munich, Germany). Non-bound dye was removed by purification of the enzyme on a Sephadex G-25 column with buffers provided in the commercial kit. […] Approximately 10 μl of sample was loaded into hydrophilic monolith NT capillaries and the measurement was performed in a NanoTemper Monolith NT.015T instrument. The emission of the red fluorescence was recorded at a focused location of the capillary. In the same location, a microscopic temperature gradient was created using an infrared laser and the fluorescence depletion was measured. According to changes in the fluorescent thermophoresis signal and the concentrations of unlabeled inhibitor, the dissociation constant values were determined by the NanoTemper analysis software.
(b) Titration of rising concentrations of
(c) Titration of rising concentrations of L-tyrosine (0-
The reactions contained constant concentration of TyrBm
as §1

Where “and” joins values, the source holds several entries; their conditions need not be identical. Identical values can stand only once. Entries after “also recorded” stand apart in the source; their conditions may differ. Like-named read-outs stand apart in the source and are kept apart here.

On to `Oc1ccc(O)cc1` [HQ, hydroquinone], for which the Vmax in experiment [1] (HQ as substrate in the presence of H2O2 (100 mM)) turned out to be 19 µmol/min/mg. Also, the “activity of TyrBm with L-dopa and HQ higher than with L-dopa alone” value is reported as 17% in experiment [1] (absorbance readings at 475 nm, 1 mM L-dopa, 0.1 mM HQ) and 8% in experiment [2] (oxygen consumption measurements, 0.1 mM HQ). Moreover, in experiment [1] (several hours, without H2O2 or L-dopa, visual, vs control without enzyme), the “TyrBm activity with HQ as a sole substrate” value was “low activity was visually observed”. For the same compound, in experiment [2] (spectrophotometric and oxygen consumption recordings, 0.1 mM compound), the “effect on TyrBm activity on L-dopa” value was “enhances activity”. In addition, the “IC50 with L-dopa higher in comparison to L-tyrosine” value at mushroom tyrosinase is on record as 80 fold. For the same compound, the Ki at mushroom tyrosinase (competitive, ref 25 Chawla et al.) was 83 µM; in experiment [5] (substrate L-tyrosine), 40 ± 10 µM. The IC50 was 33.5 µM at mushroom tyrosinase (monophenols) and 32 ± 2 µM in experiment [4]. The Km in experiment [3] was 250 µM. Moreover, the Inhibition mode entry in experiment [5] (diphenolase activity, substrate L-dopa) is “no inhibition; also recorded: does not inhibit”; in experiment [5] (monophenolase activity, substrate L-tyrosine), “competitive”. In experiment [5] (substrate L-tyrosine), the “Vmax (apparent, in presence of inhibitor)” value was 9.0 µmol/min/mg and 9.0 ± 0.5 µmol/min/mg. In experiment [5] (substrate L-tyrosine), the “kcat (in presence of inhibitor)” value was determined as 5.3 s⁻¹. In experiment [6], the Kd was 9 ± 1 µM. Further, the “dissociation constant higher than L-tyrosine” value in experiment [6] is 90 fold.
`N[C@@H](Cc1ccc(O)cc1)C(=O)O` [L-tyrosine]: the Kd in experiment [6] (read-out: KD) was determined as 0.1 ± 0.03 µM.
As for `O=c1cccccc1O` [Tropolone], the Inhibition mode result in the experiment with mushroom tyrosinase is given as “mixed”.

The term Vmax denotes the top rate of the reaction or transport when substrate is in excess. As a reminder, the Ki is a dissociation constant, usually derived from enzyme kinetics or from competition with a known ligand. The term IC50 denotes the concentration at which inhibition is half-maximal. For orientation: Km means the concentration of substrate that gives half-maximal velocity. Broadly, the Kd is the concentration at which binding is half-saturated.

The values above are taken from PMC5057104, “The unravelling of the complex pattern of tyrosinase inhibition” (Scientific Reports, 2016).
